Source: article PMC7763088, “Impact of Different Lipid Ligands on the Stability and IgE-Binding Capacity of the Lentil Allergen Len c 3” (Biomolecules, 2020)
Where two headings read alike, the source gives them in different places.

T1: rLen c 3 (Lens culinaris, UniProt A0AT29)
T1 construct: with the formation of the large fragment 1–80 and the protein without C-terminal Phe93; His8-TrxL (octahistidine-thioredoxin carrier) (N, cleaved yes); made in house; host or cells: Escherichia coli BL-21 (DE3)
T1 sequence (A0AT29 26-118): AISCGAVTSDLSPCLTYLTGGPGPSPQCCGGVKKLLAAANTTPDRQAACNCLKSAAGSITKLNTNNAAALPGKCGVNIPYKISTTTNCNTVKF

B1: bovine α-casein: bovine α-casein (Sigma), control substrate for proteolytic digestion (protein, UniProt P02662 16-214; P02663 16-222, looked up)
Alpha-S1-casein: RPKHPIKHQGLPQEVLNENLLRFFVAPFPEVFGKEKVNELSKDIGSESTEDQAMEDIKQMEAESISSSEEIVPNSVEQKHIQKEDVPSERYLGYLEQLLRLKKYKVPQLEIVPNSAEERLHSMKEGIHAQQKEPMIGVNQELAYFYPELFRQFYQLDAYPSGAWYYVPLGTQYTDAPSFSDIPNPIGSENSEKTTMPLW
Alpha-S2-casein: KNTMEHVSSSEESIISQETYKQEKNMAINPSKENLCSTFCKEVVRNANEEEYSIGSSSEESAEVATEEVKITVDDKHYQKALNEINQFYQKFPQYLQYLYQGPIVLNPWDQVKRNAVPITPTLNREQLSTSEENSKKTVDMESTEVFTKKTKLTEEEKNRLNFLKKISQRYQKFALPQYLKTVYQHQKAMKPWIQPKTKVIPYVRYL

What was measured:
rLen c 3 [1] = biological target: T1, rLen c 3; set-up: method as in PMID 28266846; conditions: among saturated FAs; cited from earlier work
rLen c 3 [2] = biological target: T1, rLen c 3; assay: Effect of lipid ligands on secondary structure and thermostability of rLen c 3 (CD spectroscopy); assay type: physicochemical, lentil; conditions: for Effect of ligand on rLen c 3 thermostability (resistance to thermal denaturation): heating up to 98.5 °C; for Effect of ligand on rLen c 3 thermostability (resistance to thermal denaturation) / Recovery of rLen c 3 structure after cooling down in the presence of ligand: pH 7.4, ligand 1 mM; for Recovery of rLen c 3 structure after cooling down in the presence of ligand: cooling down to 20 °C after 98.5 °C
Protocol: Circular dichroism spectra were recorded at different temperatures, using a J-810 spectropolarimeter (Jasco, Hachioji, Tokyo, Japan) in a 0.1 cm path length quartz cell (Hellma GmbH & Co. KG, Mullheim, Germany) in the 190–250 nm range, and 0.2, using solutions of rLen c 3 in 10 mM phosphate buffer, pH 7.4, or 150 mM sodium chloride, pH 2.5, simulated gastric fluid, at a concentration of 17 µM. Fatty acids or lysolipids were added at a final concentration of 1 mM. Each experiment was performed twice, independently.

rLen c 3 [3] = biological target: T1, rLen c 3; assay: TNS displacement lipid binding assay; set-up: species or system lentil; conditions: for IC50: 25 °C, 4 μM TNS, 4 μM rLen c 3; for Change of rLen c 3 affinity for the ligand at acidic pH: pH 2.5 compared with pH 7.4
Protocol: The ability of rLen c 3 to bind lipids was assayed by monitoring the displacement of the fluorescent probe TNS. Fluorescence intensity was measured at 25 °C with a F-2710 spectrofluorimeter (Hitachi, Tokyo, Japan), using a […] slit width for both excitation (λ = 320 nm) and emission (λ = 437 nm) and the measurement taken for no longer than 1.5–2 s. After equilibrating TNS (4 μM) in 10 mM phosphate buffer, pH 7.4, or 150 mM sodium chloride, pH 2.5, for 2 min with gentle mixing, the 2 mM of competing ligand was titrated into the 2 mL of 4 μM rLen c 3 solution in 1 μL aliquots. The resulting data were fitted by using a sigmoidal curve-fitting in GraphPad Prism from which the concentration able to displace 50% of the TNS (IC50) was calculated. The dependence of the ligand binding on temperature was performed at 20, 40, 60, 90, and 20 °C, after cooling down as previously described. Temperature was checked with a temperature probe in the cuvette. Each experiment was performed in triplicate, independently.

rLen c 3 [4] = biological target: T1, rLen c 3; assay: Effect of lipid ligands on gastrointestinal digestion of rLen c 3; assay type: in vitro ADME, lentil; conditions: for Effect of ligand on rLen c 3 degradation rate (proteolytic digestion): gastric then duodenal digestion
Protocol: (§1) Simulation of gastrointestinal digestion in vitro was performed as described in [15]. Briefly, gastric digestion was performed for 2 h, using 50 ng of pepsin (p) (Sigma) per 1 μg of rLen c 3 in 0.1 M HCl, pH 2.0 (final protein concentration 0.05 mM). For duodenal digestion, pH of the mixture resulting from gastric digestion was adjusted to 8.0 by addition of ammonium bicarbonate. The obtained mixture was incubated for 24 h at 37 °C with 2.5 ng of trypsin (t) (Promega, Madison, WI, USA) and 10 ng of α-chymotrypsin (ch) (Sigma) per 1 μg of the substrate. Degree of proteolysis was monitored by sodium dodecyl sulfate polyacrylamide gel electrophoresis (SDS-PAGE) under reducing conditions and reversed-phase high-performance liquid chromatography (RP-HPLC) on Luna C18 column (5 μm, 250 × 4.6 mm; Phenomenex, Torrance, CA, USA) at a flow rate of 0.5 mL/min, using a gradient of acetonitrile concentration from 5 to 65% for 45 min in 0.1% trifluoroacetic acid (TFA). Gel analysis was performed, using a densitometer. Electroblotting and subsequent N-terminal protein sequencing were performed as described. The protein was preheated at 100 °C for 30 min to study the effect of temperature on allergen stability. rLen c 3 was preloaded with various lipid ligands (LTP to lipid molar ratio 1:4) for 10 min, in order to investigate their effects on allergen resistance to proteolytic digest. As a control of the influence of lipid ligands on the work of proteolytic enzymes, the same reactions were carried out, using bovine α-casein (Sigma) as a substrate. Some independent experiments were performed in each case.

pepsin = assay: In vitro gastric digestion (SDS-PAGE); assay type: in vitro ADME; conditions: first 5 min; control substrate
Protocol: as §1, with “As a control of the influence of lipid ligands on the work of proteolytic enzymes, the same reactions were carried out, using bovine α-casein (Sigma) as a substrate. Some independent experiments were performed in each case.” left out

[5] = 10 mM phosphate buffer, pH 7.4, read-out: IC50 (TNS displacement)
[6] = 150 mM sodium chloride, pH 2.5, read-out: IC50 (TNS displacement)

| Molecule | Binding capacity / affinity of Len c 3 for saturated fatty acids (rLen c 3 [1]) | Effect of ligand on rLen c 3 thermostability (resistance to thermal denaturation) (rLen c 3 [2]) | IC50 (rLen c 3 [3]; [5]) [µM] | IC50 (rLen c 3 [3]; [6]) [µM] | Effect of ligand on rLen c 3 degradation rate (proteolytic digestion) (rLen c 3 [4]; LTP to lipid molar ratio 1:4) | Change of rLen c 3 affinity for the ligand at acidic pH (rLen c 3 [3]) | Recovery of rLen c 3 structure after cooling down in the presence of ligand (rLen c 3 [2]) | Effect of ligand on secondary structure of rLen c 3 (rLen c 3 [2]; pH 7.4, 20 °C, ligand 1 mM) | Ability of rLen c 3 to bind the ligand after heating and cooling down (rLen c 3 [3]; pH 7.4, heated from 20 to 90 °C, then cooled down to 20 °C) | Effect of protein preheating before digestion in the presence of ligand on rate of allergen degradation (rLen c 3 [4]; after 4 and 24 h, effect more pronounced with LPPC) | Degradation of rLen c 3 in the presence of ligand (rLen c 3 [4]; 24 h of duodenal digestion, LTP to lipid molar ratio 1:4) | IC50 (rLen c 3 [3]; IC50 (TNS displacement), 10 mM phosphate buffer, pH 7.4) [µM] | IC50 (rLen c 3 [3]; IC50 (TNS displacement), 150 mM sodium chloride, pH 2.5) [µM] | Degradation by pepsin (pepsin) |
| --- | --- | --- | --- | --- | --- | --- | --- | --- | --- | --- | --- | --- | --- | --- |
| CCCCCCCCCCCCCCCCCCCC(=O)O [ARA, arachidic C20:0] | lower affinity |  |  |  |  |  |  |  |  |  |  |  |  |  |
| CCCCCCCCCCCCCCCCCCCCCC(=O)O [BEH, behenic (docosanoic) acid] | lower affinity | slight protective effect | 5.9 ± 0.2 | 6.2 ± 0.1 | slightly accelerated the allergen proteolysis |  |  |  |  |  |  |  |  |  |
| CCCCCCCCCCCC(=O)O [LAU, lauric acid] | highest binding capacities | slight protective effect | 2.1 ± 0.2 | 2.1 ± 0.01 | quickly digested by trypsin/chymotrypsin | remained unchanged |  |  |  |  |  |  |  |  |
| CCCCCCCCCCCCCCCC(=O)OC[C@@H](O)COP(=O)([O-])OCC[N+](C)(C)C [LPPC, lyso-palmitoyl phosphatidylcholine] |  | a complete denaturation of the protein did not occur even at 98.5 °C | 7.7 ± 0.02 | 7.3 ± 0.01 | to a lesser extent, LPPC slowed down the allergen degradation | slightly increased | recovery of the protein structure was not observed | increased the percentage of α-helices | not restored | slightly increased |  |  |  |  |
| CCCCCCCC/C=C\CCCCCCCC(=O)O [OLE, oleic acid] |  | increased the rLen c 3 thermostability | 2.4 ± 0.1 | 2.6 ± 0.1 | more pronounced | decreased | partial protein renaturation |  |  |  | ~ 55% |  |  |  |
| CCCCCCCCCCCCCCCCCC(=O)O [STE, stearic acid] |  | increased the rLen c 3 thermostability |  |  | slowed down the allergen degradation | decreased | partial protein renaturation |  |  |  |  | 4.5 ± 0.1 | 5.1 ± 0.1 |  |
| B1 |  |  |  |  |  |  |  |  |  |  |  |  |  | almost completely degraded |
